Data as given in US20250230193A1, “CYCLIC COMPOUND HAVING SELECTIVE KRAS INHIBITORY EFFECT ON HRAS AND NRAS” (CHUGAI SEIYAKU KABUSHIKI KAISHA, priority 2022, published 2025).

How the values were obtained:
[1] = biological target: GDP-bound NRAS wild-type protein (Homo sapiens, UniProt P01111); assay: Binding to NRAS by surface plasmon resonance (SPR), Single Cycle Kinetics; details: KD ratio, GDP-bound NRAS wild-type vs GDP-bound KRAS wild-type, SPR
[2] = biological target: GDP-bound HRAS wild-type protein (Homo sapiens, UniProt P01112); assay: Binding to HRAS by surface plasmon resonance (SPR), Single Cycle Kinetics; details: KD ratio, GDP-bound HRAS wild-type vs GDP-bound KRAS wild-type, SPR
GDP-bound HRAS wild-type protein, sequence (P01112 whole entry): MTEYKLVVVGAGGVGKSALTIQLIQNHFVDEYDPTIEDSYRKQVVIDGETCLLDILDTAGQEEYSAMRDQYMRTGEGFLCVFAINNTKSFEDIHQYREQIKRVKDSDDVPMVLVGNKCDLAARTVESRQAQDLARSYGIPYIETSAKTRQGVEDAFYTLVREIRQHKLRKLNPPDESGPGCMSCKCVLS

GDP-bound NRAS wild-type protein, sequence (P01111 whole entry): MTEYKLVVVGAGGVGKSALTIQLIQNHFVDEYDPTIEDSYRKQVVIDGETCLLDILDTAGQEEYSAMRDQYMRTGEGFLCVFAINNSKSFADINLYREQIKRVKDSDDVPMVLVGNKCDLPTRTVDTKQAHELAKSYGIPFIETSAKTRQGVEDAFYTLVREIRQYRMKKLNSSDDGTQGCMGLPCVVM

| SMILES | NRAS/KRAS (ratio of KD value for NRAS to KD value for KRAS) [1] | HRAS/KRAS (ratio of KD value for HRAS to KD value for KRAS) [2] |
| --- | --- | --- |
| CC[C@H](C)[C@@H]1NC(=O)[C@H](CC(C)C)N(C)C(=O)C[C@@H](C(=O)N(CC)CC)N(C)C(=O)[C@H](C2CCCC2)N(C)C(=O)C2(CCC2)NC(=O)[C@@H]2C[C@@H](C)CN2C(=O)[C@H](CCc2ccc(C(F)(F)F)c(OC)c2)NC(=O)CN(C)C(=O)[C@H](Cc2ccc(C)cc2)N2CC/C=C\C[C@@H](C2=O)N(C)C(=O)CN(C)C1=O [PP1849] | A (a compound having 10 or more and less than 20 is denoted as A) | A (a compound having 10 or more and less than 20 is denoted as A) |
| CCO[C@@H]1C[C@H]2C(=O)NC3(CCC3)C(=O)N(C)[C@@H](C3CCCC3)C(=O)N(C)[C@H](C(=O)N(CC)CC)CC(=O)N(C)[C@@H](CC(C)C)C(=O)N[C@@H]([C@@H](C)CC)C(=O)N(C)CC(=O)N(C)[C@H]3C/C=C\CCN(C3=O)[C@@H](Cc3ccc(C)cc3)C(=O)N(C)CC(=O)N[C@@H](CCc3ccc(C(F)(F)F)c(OC)c3)C(=O)N2C1 [PP1851] | A (a compound having 10 or more and less than 20 is denoted as A) | A (a compound having 10 or more and less than 20 is denoted as A) |
| CC[C@H](C)[C@@H]1NC(=O)[C@H](CC(C)C)N(C)C(=O)C[C@@H](C(=O)N(C)C)N(C)C(=O)[C@H](C2CCCC2)N(C)C(=O)C2(CCC2)NC(=O)[C@@H]2C[C@H](C)CN2C(=O)[C@H](CCc2ccc(C(F)(F)F)c(Cl)c2)NC(=O)CN(C)C(=O)[C@H](Cc2ccc(C)cc2)N2CC/C=C\C[C@@H](C2=O)N(C)C(=O)CN(C)C1=O [PP1852] | A (a compound having 10 or more and less than 20 is denoted as A) | B (a compound having 3 or more and less than 10 is denoted as B) |
| CC[C@H](C)[C@@H]1NC(=O)[C@H](CC(C)C)N(C)C(=O)C[C@@H](C(=O)N(C)C)N(C)C(=O)[C@H](C2CCCC2)N(C)C(=O)C2(CCC2)NC(=O)[C@@H]2C[C@@H](C)CN2C(=O)[C@H](CCc2ccc(C(F)(F)F)c(Cl)c2)NC(=O)CN(C)C(=O)[C@H](Cc2ccc(C)cc2)N2CC/C=C\C[C@@H](C2=O)N(C)C(=O)CN(C)C1=O [PP1854] | A (a compound having 10 or more and less than 20 is denoted as A) | A (a compound having 10 or more and less than 20 is denoted as A) |
| CC[C@H](C)[C@@H]1NC(=O)[C@H](CC)N(C)C(=O)C[C@@H](C(=O)N(C)CC)N(C)C(=O)[C@H](C2CCCC2)N(C)C(=O)C2(CCC2)NC(=O)[C@@H]2C[C@@H](C)CN2C(=O)[C@H](CCc2ccc(C(F)(F)F)c(OC)c2)NC(=O)CN(C)C(=O)[C@H](Cc2ccc(C)cc2)N2CC/C=C\C[C@@H](C2=O)N(C)C(=O)CN(C)C1=O [PP1855] | AA (a compound having 20 or more is denoted as AA) | A (a compound having 10 or more and less than 20 is denoted as A) |
| CC[C@H](C)[C@@H]1NC(=O)[C@H](CC)N(C)C(=O)C[C@@H](C(=O)N(C)C)N(C)C(=O)[C@H](C2CCCC2)N(C)C(=O)C2(CC(C)(C)C2)NC(=O)[C@@H]2C[C@H](C)CN2C(=O)[C@H](CCc2cc(F)c(C(F)(F)F)c(F)c2)NC(=O)CN(C)C(=O)[C@H](Cc2ccc(C)cc2)N2CC/C=C\C[C@@H](C2=O)N(C)C(=O)CN(C)C1=O [PP1856] | A (a compound having 10 or more and less than 20 is denoted as A) | A (a compound having 10 or more and less than 20 is denoted as A) |
| CCC[C@H]1C(=O)N[C@@H]([C@@H](C)CC)C(=O)N(C)CC(=O)N(C)[C@H]2C/C=C\CCN(C2=O)[C@@H](Cc2ccc(C)cc2)C(=O)N(C)CC(=O)N[C@@H](CCc2ccc(C(F)(F)F)c(OC)c2)C(=O)N2C[C@@H](C)C[C@H]2C(=O)NC2(CCC2)C(=O)N(C)[C@@H](C2CCCC2)C(=O)N(C)[C@H](C(=O)N(C)C)CC(=O)N1C [PP1857] | A (a compound having 10 or more and less than 20 is denoted as A) | B (a compound having 3 or more and less than 10 is denoted as B) |
